# Measurements published in patent US9693556B2, “Herbicidal pyridazinone derivatives” (SYNGENTA LIMITED, priority 2011, dated 2017).
# Assays:
# Assay type in all cases: in vivo
# [1] = tested on: Ipomoea hederacea (IPOHE); assay: Post-emergence herbicidal glasshouse test on Ipomoea hederacea; conditions: post-emergence; 1000 g/h; evaluated after 13 days
# Procedure, shortened: (§1)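 Scored on a five-point scale (1 = 0-19% to 5 = 80-100% damage) 13 days after treatment. Application rate 1000 g/h in acetone/water (50:50) containing 0.5% Tween 20, sprayed one day post-sowing for pre-emergence or eight days for post-emergence; glasshouse at 24/16° C, 14 h light, 65% humidity.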
# [2] = tested on: Solanum nigrum (SOLNI); assay: Pre-emergence herbicidal glasshouse test on Solanum nigrum; conditions: pre-emergence; 1000 g/h; evaluated after 13 days
# Procedure, shortened: as §1
# [3] = tested on: Alopecurus myosuroides (ALOMY); assay: Post-emergence herbicidal glasshouse test on Alopecurus myosuroides; conditions: post-emergence; 1000 g/h; evaluated after 13 days
# Procedure, shortened: as §1
# [4] = tested on: Setaria faberi (SETFA); assay: Post-emergence herbicidal glasshouse test on Setaria faberi; conditions: post-emergence; 1000 g/h; evaluated after 13 days
# Procedure, shortened: as §1
# [5] = tested on: Echinochloa crus-galli (ECHCG); assay: Pre-emergence herbicidal glasshouse test on Echinochloa crus-galli; conditions: pre-emergence; 1000 g/h; evaluated after 13 days
# Procedure, shortened: as §1
# [6] = tested on: Echinochloa crus-galli (ECHCG); assay: Post-emergence herbicidal glasshouse test on Echinochloa crus-galli; conditions: post-emergence; 1000 g/h; evaluated after 13 days
# Procedure, shortened: as §1
# [7] = tested on: Amaranthus retoflexus (AMARE); assay: Pre-emergence herbicidal glasshouse test on Amaranthus retoflexus; conditions: pre-emergence; 1000 g/h; evaluated after 13 days
# Procedure, shortened: as §1
# [8] = tested on: Ipomoea hederacea (IPOHE); assay: Pre-emergence herbicidal glasshouse test on Ipomoea hederacea; conditions: pre-emergence; 1000 g/h; evaluated after 13 days
# Procedure, shortened: as §1
# [9] = tested on: Solanum nigrum (SOLNI); assay: Post-emergence herbicidal glasshouse test on Solanum nigrum; conditions: post-emergence; 1000 g/h; evaluated after 13 days
# Procedure, shortened: as §1
# [10] = tested on: Alopecurus myosuroides (ALOMY); assay: Pre-emergence herbicidal glasshouse test on Alopecurus myosuroides; conditions: pre-emergence; 1000 g/h; evaluated after 13 days
# Procedure, shortened: as §1
# [11] = tested on: Setaria faberi (SETFA); assay: Pre-emergence herbicidal glasshouse test on Setaria faberi; conditions: pre-emergence; 1000 g/h; evaluated after 13 days
# Procedure, shortened: as §1
# [12] = tested on: Amaranthus retoflexus (AMARE); assay: Post-emergence herbicidal glasshouse test on Amaranthus retoflexus; conditions: post-emergence; 1000 g/h; evaluated after 13 days
# Procedure, shortened: as §1
Compound,POST Application IPOHE herbicidal damage (five point scale) [1],PRE Application SOLNI herbicidal damage (five point scale) [2],POST Application ALOMY herbicidal damage (five point scale) [3],POST Application SETFA herbicidal damage (five point scale) [4],PRE Application ECHCG herbicidal damage (five point scale) [5],POST Application ECHCG herbicidal damage (five point scale) [6],PRE Application AMARE herbicidal damage (five point scale) [7],PRE Application IPOHE herbicidal damage (five point scale) [8],POST Application SOLNI herbicidal damage (five point scale) [9],PRE Application ALOMY herbicidal damage (five point scale) [10],PRE Application SETFA herbicidal damage (five point scale) [11],POST Application AMARE herbicidal damage (five point scale) [12]
Cn1ncc(-c2ccc(Cl)c(F)c2Cl)c(O)c1=O [Compound 1.092],2 (2=20-39% damage),1 (1=0-19% damage),1 (1=0-19% damage),1 (1=0-19% damage),1 (1=0-19% damage),1 (1=0-19% damage),1 (1=0-19% damage),1 (1=0-19% damage),2 (2=20-39% damage),1 (1=0-19% damage),1 (1=0-19% damage),1 (1=0-19% damage)
Cc1cc(F)ccc1-c1cnn(C)c(=O)c1O [Compound 1.093],1 (1=0-19% damage),1 (1=0-19% damage),1 (1=0-19% damage),1 (1=0-19% damage),1 (1=0-19% damage),1 (1=0-19% damage),1 (1=0-19% damage),1 (1=0-19% damage),2 (2=20-39% damage),1 (1=0-19% damage),1 (1=0-19% damage),1 (1=0-19% damage)
Cc1ccc(F)cc1-c1cnn(C)c(=O)c1O [Compound 1.094],1 (1=0-19% damage),1 (1=0-19% damage),1 (1=0-19% damage),1 (1=0-19% damage),1 (1=0-19% damage),1 (1=0-19% damage),1 (1=0-19% damage),1 (1=0-19% damage),2 (2=20-39% damage),1 (1=0-19% damage),1 (1=0-19% damage),1 (1=0-19% damage)
Cn1ncc(-c2cccc3ccccc23)c(O)c1=O [Compound 1.095],1 (1=0-19% damage),1 (1=0-19% damage),1 (1=0-19% damage),1 (1=0-19% damage),1 (1=0-19% damage),1 (1=0-19% damage),1 (1=0-19% damage),1 (1=0-19% damage),1 (1=0-19% damage),1 (1=0-19% damage),1 (1=0-19% damage),1 (1=0-19% damage)
Cn1ncc(-c2cc(C(F)(F)F)ccc2F)c(O)c1=O [Compound 1.096],2 (2=20-39% damage),1 (1=0-19% damage),1 (1=0-19% damage),1 (1=0-19% damage),1 (1=0-19% damage),1 (1=0-19% damage),1 (1=0-19% damage),1 (1=0-19% damage),1 (1=0-19% damage),1 (1=0-19% damage),1 (1=0-19% damage),1 (1=0-19% damage)
